The nature of series [1]: Lipid solubility and water solubility compared with Example 5. It counts as physicochemical.
A short description of series [2]: Pharmacokinetic study in rats. It counts as in vivo, SD rats. Particulars: 10 mg/kg, oral gavage; for bioavailability: male, SD, rat, plasma, po, read-out: Absolute Bioavailability(F %). As for the experimental part:
• Experimental animals: SPF male SD rats; • Dosage and method of administration: 10 mg/kg, oral gavage.
Research compound: Dapagliflozin, the compound of Example 5, the compound of Example 7, the compound of Comparative Example 6; • Test method: Before administration (0), and 1, 4, 8, and 24 hours after administration, 0.2 ml of blood was collected from orbital venous plexus, anticoagulated with heparin, and plasma was collected.

A short description of series [3]: Observation of defecation (loose stools) in rats during OGTT study. It counts as in vivo, SD rats. The following applies: 0.012 mg/kg oral gavage, within 48 hours before and after the experiment. As for the experimental part: (§1) Experimental process: the animals were fed a normal diet with consecutive administration for 14 days, and the glucose tolerance test was performed on day 15, blood glucose was detected before administration (−30 min), before giving glucose (0 min), and 10, 30, 60, and 120 min after giving glucose solution, and the defecation of animals was observed.

Series [4] concerns the target T1, SGLT1 (Homo sapiens, UniProt P13866).
T1 sequence (P13866 1-664): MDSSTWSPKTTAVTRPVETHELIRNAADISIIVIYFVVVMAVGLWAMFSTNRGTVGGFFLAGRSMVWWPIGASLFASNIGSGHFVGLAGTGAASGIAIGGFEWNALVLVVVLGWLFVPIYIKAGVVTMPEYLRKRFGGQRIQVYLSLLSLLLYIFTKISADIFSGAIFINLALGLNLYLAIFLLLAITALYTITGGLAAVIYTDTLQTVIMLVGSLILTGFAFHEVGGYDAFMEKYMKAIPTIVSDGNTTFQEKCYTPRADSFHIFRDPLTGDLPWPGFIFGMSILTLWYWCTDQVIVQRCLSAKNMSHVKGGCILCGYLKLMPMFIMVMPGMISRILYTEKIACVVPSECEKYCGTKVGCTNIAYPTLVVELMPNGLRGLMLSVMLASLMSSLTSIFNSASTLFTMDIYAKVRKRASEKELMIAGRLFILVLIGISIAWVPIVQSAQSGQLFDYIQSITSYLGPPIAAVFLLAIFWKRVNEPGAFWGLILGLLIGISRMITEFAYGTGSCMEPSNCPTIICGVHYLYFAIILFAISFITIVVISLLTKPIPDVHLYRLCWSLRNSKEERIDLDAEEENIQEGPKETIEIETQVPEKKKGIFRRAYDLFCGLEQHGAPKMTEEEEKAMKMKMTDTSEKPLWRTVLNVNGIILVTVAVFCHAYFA
Briefly: HSGLT1 inhibitor activity experiment: 2-NBDG uptake by HEK293 cells stably expressing human SGLT1. The class given is cell-based. The arrangement: expressed in transfected cells; host or cells: HEK293. The following applies: for IC50: 2-NBDG uptake, HEK293 stably expressing human SGLT1, read-out: SGLT1 Inhibitory Activity. The method, then: Inhibitory activity testing was performed with reference to a similar method described in document (Acta Pharmaceutica Sinica 2017, 52(6):897-903; Nature Protocols (2007), 2(3), 753-762; Journal of Biochemical and Biophysical Methods (2005), 64(3), 207-215; Diabetes Technology & Therapeutics (2011), 13(7), 743-775).
In this experiment, the in vitro activity assay was evaluated using the uptake of 2-NBDG (2-Deoxy-2-[(7-nitro-2,1,3-benzoxadiazol-4-yl)amino]-D-glucose, CAS NO: 186689-07-6) by human embryonic kidney epithelial cells (HEK293, stably expressing human SGLT1), and the SGLT1 inhibitory activity of the target compound was determined by measuring its half-maximal inhibitory concentration (IC50).
HEK293 cells that can stably express human SGLT1 gene were inoculated into a 96-well clear-bottom black plates containing DMEM medium. The cells were incubated at 37° C., 5% CO2in a cell incubator. The medium in the 96-well plate was aspirated, and the plate was treated with low-glucose serum-free DMEM medium, and washed once with non-specific uptake buffer and once with Na^+-dependent uptake buffer. Uptake buffer containing test compound was added to each well of cells, followed by uptake buffer containing 2-NBDG for glucose uptake, and the cell plate was incubated at 37° C., 5% CO2. The compounds were gradiently diluted. The uptake reaction was stopped by removing the culture medium, and after washing the cells with ice-cold uptake buffer, the washing solution was removed. The cells were lysed by adding NaOH, and the content of 2-NBDG in the cells was detected by a fluorescence microplate reader. The protein concentration of the lysate was measured by BCA method, the uptake of 2-NBDG was quantified by fluorescence intensity/protein content, and the obtained data were analyzed using GraphPad Prism to determine the median inhibitory concentration (IC50) of the compound to be tested.

A further series has as its system blood glucose. Briefly: Oral glucose tolerance test (OGTT) after continuous administration in rats for 14 days. The class given is in vivo, SD rats. The following applies: 0.012 mg/kg oral gavage, OGTT on day 15. The method, then: • Experimental animals: SPF male SD rats; • Compound preparation: an appropriate amount of the compounds of Example 2, Example 3, and Example 5 were weighed, and uniformly suspended with an appropriate amount of 0.5% CMC-Na solution; • Preparation of glucose solution: an appropriate amount of glucose powder was weighed and dissolved with an appropriate amount of pure water; • Dosage and method of administration: 0.012 mg/kg, oral gavage.
as §1

Series [5] has as its target T1, SGLT1. Briefly: SGLT1 Inhibitor Activity Experiment 1. The class given is cell-based. As for the experimental part:
The inhibitory activity of SGLT1 was tested with reference to the method described in document (Journal of Medicinal Chemistry 2017, 60, 710-721, Discovery of LX2761, a Sodium-Dependent Glucose Cotransporter 1 (SGLT1) Inhibitor Restricted to the Intestinal Lumen, for the Treatment of Diabetes).

Each structure is given as a SMILES string. Bounds are passed on as bounds.

Regarding `CS[C@H]1O[C@@H](c2ccc(C)c(Cc3ccc(CCCC(=O)NCCN(C)Cc4cn(C5CC5)nn4)cc3)c2)[C@H](O)[C@@H](O)[C@@H]1O`, in series [1], the “lipid solubility relative to Example 5” value is “better lipid solubility”; the “water solubility relative to Example 5” value was “better lipid solubility and water solubility”.
As to `CCOc1ccc(Cc2cc([C@@H]3O[C@H](CO)[C@@H](O)[C@H](O)[C@H]3O)ccc2Cl)cc1` [Dapagliflozin, reference compound], in series [2], the “absorption in vivo after oral administration (in words)” value is reported as “absorbed into the blood” and the bioavailability came out at 73%.
On to `CS[C@H]1O[C@@H](c2ccc(C)c(Cc3ccc(CCCC(=O)NCCN4CCN(C)CC4)cc3)c2)[C@H](O)[C@@H](O)[C@@H]1O` [Example 2], for which the “loose stools in experimental animals” value in series [3] is reported as “no loose stools were observed”. In addition, at SGLT1 [4], the “activity of inhibiting SGLT1 (in words)” value is listed as “significant activity of inhibiting SGLT1” and the IC50 was 0.97 nM. Further, the “blood sugar level of rats in OGTT” value in the series on blood glucose is “significantly reduce the blood sugar level”.
In the same order, the values of `CS[C@H]1O[C@@H](c2ccc(C)c(Cc3ccc(CCCC(=O)NCCN4CCCCC4)cc3)c2)[C@H](O)[C@@H](O)[C@@H]1O` [Example 3] are “no loose stools were observed”, “significant activity of inhibiting SGLT1”, 0.83 nM and “significantly reduce the blood sugar level”.
Take `CS[C@H]1O[C@@H](c2ccc(C)c(Cc3ccc(CCCC(=O)NCCN(C)Cc4ccccc4)cc3)c2)[C@H](O)[C@@H](O)[C@@H]1O` [Example 4]: at SGLT1 [4], the “activity of inhibiting SGLT1 (in words)” value is recorded as “significant activity of inhibiting SGLT1” and the IC50 was 1.01 nM.
Consider `C#CCN(C)CCNC(=O)CCOc1ccc(Cc2cc([C@@H]3O[C@H](SC)[C@@H](O)[C@H](O)[C@H]3O)ccc2C)cc1` [Example 6], for which the IC50 against SGLT1 [5] is less than 50 nM.
`C#CCN(C)CCNC(=O)CCOCc1ccc(Cc2cc([C@@H]3O[C@H](SC)[C@@H](O)[C@H](O)[C@H]3O)ccc2C)cc1` [Example 7]: in series [2], the “absorption in vivo after oral administration (in words)” value is on record as “almost no absorption in vivo”, the “detection in vivo after oral administration (in words)” value is given as “hardly detected in vivo” and the bioavailability was less than 1.5%. Moreover, the IC50 on SGLT1 [5] is less than 50 nM.
As to `C#CCN(C)CCNC(=O)C/C=C/c1ccc(Cc2cc([C@@H]3O[C@H](SC)[C@@H](O)[C@H](O)[C@H]3O)ccc2C)cc1` [Example 8], the IC50 against SGLT1 [5] is less than 50 nM.

For orientation: bioavailability means the share of a dose that reaches the circulation, judged against a reference dose that is usually intravenous.

For the origin of these results see patent US12522628B2, “Aryl glucoside derivative and use thereof in drug” (SHANGHAI ZHEYE BIOTECHNOLOGY CO. LTD., priority 2020, dated 2026).
